The data set is described as follows: Toxicity in iv dosed mouse. The class given is organism-based. The settings on record: in vivo.

As a reminder, the LD50 is the dose at which mortality reaches 50%. The low end stands for greater toxicity, the high end for lower toxicity. Regarding `N=C(N)NCCCC1NCCc2c1[nH]c1ccccc21` (stereo unspecified) [TRYPARGINE], the LD50 amounted to 16.9 mg/kg.

The values above are taken from ChEMBL document CHEMBL1141855, “Trypargine alkaloids from a previously undescribed Eudistoma sp. ascidian” (J Nat Prod, 1999).
